Reference: patent US20090088380A1, “GHRH ANALOGS AND THERAPEUTIC USES THEREOF” (priority 2007, published 2009)
Values joined by “and” are separate entries in the source; they are usually repeats but may differ in a detail not shown here. Identical values can stand only once. Non-standard residues stand in square brackets, D forms with d. Residues, ends and D or L forms follow the SMILES beside them.

Key:
[1] = system: malnourished subjects with CKD; assay: Phase II CKD: biochemical markers of nutritional and metabolic state (plasma proteins, glucose control, lipids); format: in vivo, human
Experimental: Plasma proteins were measured as markers for renal disease and malnourishment. Blood samples were analysed locally. Albumin (g/L) were measured at screening, baseline and on Day 28. Blood samples for measurement of pre-albumin (g/L) were collected at baseline, Day 14 and Day 28. Transferrin (g/L) was measured at baseline, Day 7, Day 14 and Day 28.
HbA1c (%) was measured at screening and Day 28 as a marker for long-term glucose control. Fasting insulin (μunits/mL) and fasting glucose (mmol/L) were measured at baseline, Day 7, Day 14 and Day 28 as markers for short-term glucose control.
Fasting triglyceride (mmol/L) and fasting cholesterol (mmol/L) were measured at baseline, Day 7, Day 14 and Day 28 as markers for lipid metabolism.

[2] = system: malnourished subjects with CKD; assay: Phase II CKD: 24-hour urine collection, creatinine and urea clearance, GFR, PNA; format: in vivo, human; conditions: for Creatinine (24-hour urine): mean (SD) / Creatinine clearance: median / GFR: median / Urea (24-hour urine): mean (SD) / Urea clearance: mean (SD) / nPNA: mean (SD): ITT population
Experimental: Subjects collected 24-hour urine samples at screening, baseline (Days 0 to 1) and Days 28 to 29. All of the samples were analysed for creatinine and urea clearance (mL/min). The samples collected at baseline and on Day 28 were also analysed for proteinuria (Coumassie method), PNA, sodium, potassium, chloride, calcium and phosphate. GFR was calculated using the Cockcroft-Gault formula: […]

in vivo = conditions: Beagle, dog
Experimental: No mortality, adverse clinical sign, effects on body weight, food consumption, opthalmology, haematology, coagulation, clinical chemistry, urinalysis or organ weights were noted following the dosing or recovery periods. Microscopic findings at the injection sites were noted among treated animals, however, the changes were reversed following the recovery period. A no adverse effect level for this study was determined to be 3 mg/kg.

[3] = system: malnourished subjects with CKD; assay: Phase II CKD: bioimpedance; format: in vivo, human; conditions: for Basal metabolic rate: median / Body cell mass: median / Extracellular cell mass: median / Extracellular water: median / Intracellular water: median / Total body water: median / Fat free mass (%): median / Fat free mass (kg): median / Fat mass (%): median / Fat mass (kg): median: ITT; for Fat free mass (%): median / Fat free mass (kg): median / Fat mass (%): median / Fat mass (kg): median: bioimpedance
Experimental: Height (cm) was measured only at the screening visit. Anthrompometry was measured at every visit from baseline to follow-up. Anthropometric measurements included weight, skinfold thicknesses and arm circumference. Weight (kg) was measured using a high performance scale. Subjects were asked to stand on the scale with minimal clothing, no shoes, and with even weight on both feet. Skinfold thickness (mm) was measured by using Harpenden Skinfold Callipers at 4 sites: biceps, triceps, suprailiacal and subscapular. Arm circumference (cm) was measured using a tape measure that is flexible, inelastic and metric. The site measured was marked, and the tape was not to be too tight or too loose, and to lie flat on the skin, and be horizontal. Bioimpedance measurements were made to measure body composition at every visit from baseline to Day 28. The bioimpedance scale (RJL Systems) was used. Resistance, reactance and the phase angle were recorded.
Bioelectrical impedance (BIA) was used to evaluate body water content (total body water %, extracellular water and intracellular water), fat free mass and fat mass using Maltron BioScan 916 and BIA 450 apparatus from Biodynamics Corp. The method is fast, precise and noninvasive.
Bioimpedance measurements were done at every visit from baseline (day 0) on days 7, 14, 21 to 28. Weight and FFM (kg) were measured and FM (kg, %) and FFM (%) were derived. There was an increase from baseline in median FFM (3.3 kg) and decrease in median FM (1.8 kg) in all except one (11/12) patients in the GHRH(1-29)NH2 synthetic analog group on day 28 while there was a decrease in median FFM (0.8 kg) and increase in median FM (1.3 kg) in the placebo arm.

[4] = GHRH vs placebo, Day 28, ANOVA for repeated measures

## CC[C@H](C)[C@H](NC(=O)[C@H](C)NC(=O)[C@H](CC(=O)O)NC(=O)[C@@H](C)NC(=O)[C@@H](N)Cc1ccc(O)cc1)C(=O)N[C@@H](Cc1ccccc1)C(=O)N[C@H](C(=O)N[C@@H](CC(N)=O)C(=O)N[C@@H](CO)C(=O)N[C@H](Cc1ccc(O)cc1)C(=O)N[C@@H](CCCNC(=N)N)C(=O)N[C@@H](CCCCN)C(=O)N[C@H](C(=O)N[C@@H](CC(C)C)C(=O)N[C@H](C)C(=O)N[C@@H](CCC(N)=O)C(=O)N[C@@H](CC(C)C)C(=O)N[C@@H](CO)C(=O)N[C@@H](C)C(=O)N[C@@H](CCCNC(=N)N)C(=O)N[C@@H](CCCCN)C(=O)N[C@@H](CCCCN)C(=O)N[C@@H](CC(C)C)C(=O)N[C@@H](CCC(N)=O)C(=O)N[C@@H](CC(=O)O)C(=O)N[C@H](C(=O)N[C@@H](CCSC)C(=O)N[C@@H](CO)C(=O)N[C@@H](CCCNC(=N)N)C(N)=O)[C@@H](C)CC)C(C)C)[C@@H](C)O [GHRH analog #5, [D-Ala^2, D-Tyr^10, D-Ala^15, Lys^22] hGHRH(1-29)-NH2] (H-Y[dA]DAIFTNS[dY]RKVL[dA]QLSARKKLQDIMSR-NH2)
[1]; ITT
  Fasting cholesterol: mean difference (GHRH-Placebo): −0.58
[1]; ITT, Baseline
  Albumin: median: 41.0 g/L
  Fasting glucose: median: 5.1 mmol/L
  Fasting insulin: median: 8.4 μ units/mL
  Fasting triglycerides: median: 1.40 mmol/L
  Pre-albumin: mean (SD): 0.216 (0.088) g/L
  Transferrin: mean (SD): 2.202 (0.315) g/L
[1]; ITT, Day 28
  Albumin: median: 40.4 g/L
  Fasting glucose: median: 5.4 mmol/L
  Fasting insulin: median: 12.1 μ units/mL
  Fasting triglycerides: median: 1.98 mmol/L
  HbA1c: median: 5.606%
  Pre-albumin: mean (SD): 0.201 (0.103) g/L
  Transferrin: mean (SD): 2.383 (0.370) g/L
[1]; ITT, Day 28, listed as GHRH(1-29)NH2 synthetic analog
  Fasting cholesterol: median: 4.69 mmol/L
[1]; ITT, Screening
  HbA1c: median: 5.516%
[1]; ITT, vs placebo
  Fasting glucose: ratio of means: 1.030
  Fasting insulin: ratio of means: 1.79 and 1.788
  Fasting triglycerides: ratio of means: 1.199
  Pre-albumin: comparison or ratio of means: −0.093
  Transferrin: comparison or ratio of means: 0.06
[1]; day 7
  Fasting insulin: median: 14.2 μunits/ml
[1]; day 14
  Fasting insulin: median: 15.5 μunits/ml
[1]; in vivo
  Reduction of mean cholesterol in almost all patients (10/12): up to 10%
[2]; Baseline
  Creatinine (24-hour urine): mean (SD): 10.44 (5.10) mmol/24 hours
  Creatinine clearance: median: 24.92 mL/min/1.73 m^−2
  GFR: median: 19.37 ml/min/1.73 m^−2
  Urea (24-hour urine): mean (SD): 343.53 (170.39) mmol/24 hours
  Urea clearance: mean (SD): 11.858 (5.820) mL/min/1.73 m^−2
  nPNA: mean (SD): 2.3648 (1.1530) g/kg body weight/24 h
[2]; Day 28
  Mean urea clearance rate: 11.24 mL/min/1.73 m^−2
  Median GFR: 18.23 mL/min/1.73 m^−2
  Median creatinine clearance: 23.78 mL/min/1.73 m^−2
  Creatinine (24-hour urine): mean (SD): 9.68 (3.29) mmol/24 hours
  Creatinine clearance: median: 23.78 mL/min/1.73 m^−2
  GFR: median: 18.23 ml/min/1.73 m^−2
  Urea (24-hour urine): mean (SD): 235.87 (88.51) mmol/24 hours
  Urea clearance: mean (SD): 11.244 (4.200) mL/min/1.73 m^−2
  nPNA: mean (SD): 1.6198 (0.5892) g/kg body weight/24 h
[2]; [4]
  Urea clearance: adjusted difference or comparison: 2.28 mL/min/1.73 m^−2
  nPNA: adjusted difference or comparison: −0.553 g/kg body weight/24 h
[2]; after decrease (day 28)
  nPNA: mean value: 1.6198 g/kg body weight/24 h
[2]; baseline
  Mean urea clearance rate: 11.86 mL/min/1.73 m^−2
  Median GFR: 19.37 mL/min/1.73 m^−2
  Median creatinine clearance: 24.92 mL/min/1.73 m^−2
[2]; before decrease (baseline)
  nPNA: mean value: 2.3648 g/kg body weight/24 h
[2]; day 28
  Urea clearance: adjusted mean difference between GHRH and placebo arm: 2.28 ml/min/1.73 m^2
  nPNA: adjusted mean difference between GHRH and placebo arm: −0.553 g/kg body weight/24 h
[2]; one patient
  GFR: improvement against baseline, one patient: 78.56%
[2]; two patients
  Creatinine clearance: improvement against baseline, individual patients: 124.63% and 115.65%
[2]; two patients, listed as GHRH(1-29)NH2 synthetic analog
  Urea clearance: improvement against baseline, individual patients: 123.99% and 103.49%
In vivo
  NOAEL at 672 h: 3 mg/kg
[3]; BIA, day 7
  Median FFM: 50.4 kg
  Median FM: 13.3 kg
[3]; BIA, day 14
  Median FFM: 50.8 kg
  Median FM: 13.4 kg
[3]; BIA, day 21
  Median FFM: 50.1 kg
  Median FM: 12.6 kg
[3]; BIA, day 28
  Decrease from baseline in median FM: 1.8 kg
  Increase from baseline in median FFM: 3.3 kg
  Increase in median BMR from baseline: 49 kcal
[3]; Baseline
  Basal metabolic rate: median: 1441 kcal
  Body cell mass: median: 23 kg and 23.0 kg
  Extracellular cell mass: median: 23.5 kg
  Extracellular water: median: 17.7 L
  Intracellular water: median: 17.0 L
  Total body water: median: 35.8 L
  Fat free mass (%): median: 75.3%
  Fat free mass (kg): median: 48.8 kg
  Fat mass (%): median: 24.7%
  Fat mass (kg): median: 16.0 kg
[3]; Day 28
  Basal metabolic rate: median: 1473 kcal
  Body cell mass: median: 22.6 kg
  Extracellular cell mass: median: 24.7 kg
  Extracellular water: median: 19.1 L
  Intracellular water: median: 15.8 L
  Total body water: median: 38.1 L
  Fat free mass (%): median: 78.6%
  Fat free mass (kg): median: 51.1 kg
  Fat mass (%): median: 21.4%
  Fat mass (kg): median: 12.2 kg
[3]; baseline
  Ratio of median ECW/ICW: 1.04
[3]; Baseline, listed as GHRH(1-29)NH2 synthetic analog
  Fat mass (kg): median: 16 kg
[3]; day 7
  Median BCM: 25.1 kg
  Median ECM: 24.4 kg
  Median increase in BCM from baseline: 1.3 kg
  Median increase in ECM from baseline: 0.8 kg
[3]; day 14
  Median BCM: 24.3 kg
  Median ECM: 25.4 kg
[3]; day 21
  Median BCM: 23.2 kg
  Median ECM: 25.9 kg
[3]; day 28
  Increase in median ECW from baseline: 1.9 L
  Increase in median ICW from baseline: 1.2 L
  Increase in median total body water from baseline: 3 L
  Median increase in BCM from baseline: 1.8 kg
  Median increase in ECM from baseline: 1.7 kg
  Ratio of median ECW/ICW: 1.2
